Two molecules from patent publication US9505800B2, “Extended triterpene derivatives” (Myrexis, Inc., priority 2006, dated 2016) can be followed below.

SMILES strings stand for the structures.

One series deals with HIV-1IIIB virus. Kind of series: Determination of a compound's EC50 on MT-2 cell line (HIV-1IIIB infection, XTT/PMS viability read-out). In kind it is cell-based. The settings on record: Table 1; for TI: TI = CC50:EC50 ratio. Here is the method:
Drug Preparation—The EC50 value for each compound is determined prior to determining the combination index. Each compound is tested in replicates of three, starting at a final concentration of 1 ug/mL. Compounds are dissolved in DMSO at a stock concentration of 10 mg/mL. Test compounds are serially diluted (4-fold dilutions) in a 96-flat-bottom-well plate. The initial working concentration of compound is 4× the desired final concentration. The final volume of drug per well is 45 uL. Included as controls are at least four wells containing cells only and four containing cells and virus in the absence of drug.
Virus Preparation—The HIV-1IIIB virus generated in the H9 cell line is diluted in culture media. The virus is used at a dilution that will cause 50%-75% cell death in day five post-infection as determined by XTT/PMS vital dye. Virus (45 uL) is added to all wells containing drug as well as the control wells.
Cell Preparation—MT-2 cells are added to each well at a volume of 90 uL per well at a cell concentration of 3.3×10^5 cells per mL. MT-2 cells are human T-cell leukemia cells isolated from cord blood lymphocytes and co-cultured with cells from patients with adult T-cell leukemia. […]
Assay—Culture plates are placed in a 37° C., 5% CO2, humidified incubator. […] XTT, (2,3-Bis(2-methoxy-4-nitro-5-sulfophenyl)-2H-tetrazolium-5-carboxanilide) is a yellow tetrazolium salt that, in the presence of dehydrogenase enzymes of metabolically active cells, is reduced to yield a soluble orange formazan dye, which can be measured by absorbance at 490 (or 450) nm in a microplate reader. […] For each plate to be analyzed, 5 mL of XTT/PMS is needed. […] Plates are placed uncovered into a 5% CO2, 37° C. incubator and read on plate reader at a wavelength of 450 nm after four hour incubation.
Data Compilation—The percent inhibition at a given concentration is determined by using the following formula: (average OD-virus control)/(cell control—virus control). The EC50 for each compound is calculated from the linear regression of percent inhibition.
In general terms: Tetrazolium assays rely on reduction of a dye to a coloured formazan, in cell work by metabolically active cells.

The nature of another series: in vitro. The settings on record: human.
Series [1] in a line: CC50 (cytotoxicity) reported beside the EC50 values; method not described. Conditions: human, MT-2 cells.

A word on the EC50: it is the concentration giving half of the maximal effect. As to `C=C(C)[C@@H]1CC[C@]2(CCN3CCOCC3)CC[C@]3(C)[C@H](CC[C@@H]4[C@@]5(C)CC[C@H](OC(=O)CC(C)(C)CC(=O)O)C(C)(C)[C@@H]5CC[C@]43C)[C@@H]12`, the EC50 with HIV-1IIIB virus (Human immunodeficiency virus 1, MT2, 120 h, extended compound vs non-extended analog, MT-2 cells, HIV-1IIIB, day 5 post infection, XTT/PMS) is 22.1 nM. Also, in the series with HIV-1IIIB virus, the TI stood at 3387. Also, the CC50 in the series “in vitro” amounted to 74.8 µM.

As to `C=C(C)[C@@H]1CC[C@]2(CN3CCOCC3)CC[C@]3(C)[C@H](CC[C@@H]4[C@@]5(C)CC[C@H](OC(=O)CC(C)(C)CC(=O)O)C(C)(C)[C@@H]5CC[C@]43C)[C@@H]12`, in the series with HIV-1IIIB virus, the TI worked out at 135. The molecule also gave a CC50 in series [1] of 10.4 µM.
